Laboratory results: patent US20260256792A1, “TREATMENT OF CHRONIC SPONTANEOUS URTICARIA BY ADMINISTERING (R)-2-[3-[4-AMINO-3-(2-FLUORO-4-PHENOXY-PHENYL)PYRAZOLO[3,4-D]PYRIMIDIN-1-YL]PIPERIDINE-1-CARBONYL]-4-METHYL-4-[4-(OXETAN-3-YL)PIPERAZIN-1-YL]PENT-2-ENENITRILE” (priority 2023, published 2026)

System: moderate-to-severe chronic spontaneous urticaria (CSU)
Assay: Phase 2 CSU study: urticaria activity score over 7 days (UAS7)
Type: in vivo, human
Conditions: Omalizumab-Naïve
From the text: The study comprises a 12 week, randomized, double-blind, placebo-controlled, multi-center, dose-ranging efficacy and safety phase, followed by a 40 week open label extension (OLE) phase (see FIG. 1). The study consists of three phases and an optional OLE phase. […] Clinically, CSU is characterized by the spontaneous and recurrent appearance of pruritic hives. The proposed primary endpoints were the UAS7 at Week 12 in EU and EU reference countries and the ISS7 in the US. Regardless of where a participant was from, all assessments were the same. The UAS7 score is a composite score containing both the HSS7 and the ISS7. This allowed a global assessment of the two key components of urticaria: hives and itch. […] The UAS is a validated PRO measure. […] The daily UAS scores range from 0 to 6 point/day. […] Patients were to complete the UAS using the e-diary. […] The following secondary endpoints were to be analyzed using the same approach as for the primary endpoint: • Change from baseline in UAS7 at Week 4 • Change from baseline in UAS7 at Week 12 (for US and US reference countries) • Change from baseline in ISS7 at Week 12 (except US and US reference countries) • Change from baseline in HSS7 at Week 12 The following responder secondary endpoints were to be analyzed using the Cochran-Mantel-Haenszel test adjusted by region: • Proportion of participants with UAS7<6 at Week 12 • Proportion of participants with UAS7=0 at Week 12 Participants who received selected prohibited medications and/or rescue medications were to be considered as non-responders for time points after the medication usage. For other participants, all available data including those collected during the off-treatment period were to be used to determine the responder/non-responder status. Missing data were to be considered as non-responders.

[1] = Age group (years) ≥44 (Median), 400 mg QPM
[2] = Age group (years) ≥44 (Median), 400 mg TID
[3] = Age group (years) ≥65, 400 mg BID
[4] = Age group (years) ≥65, 400 mg QPM
[5] = Age group (years) ≥65, 400 mg TID
[6] = Baseline BHRA BHRA+, 400 mg BID
[7] = Baseline BHRA BHRA+, 400 mg QPM
[8] = Baseline BHRA BHRA+, 400 mg TID
[9] = Baseline BHRA BHRA−, 400 mg BID
[10] = Baseline BHRA BHRA−, 400 mg QPM
[11] = Baseline BHRA BHRA−, 400 mg TID
[12] = Baseline Eosinophils (10^9/L) <0.150, 400 mg BID
[13] = Baseline Eosinophils (10^9/L) <0.150, 400 mg TID
[14] = Baseline Eosinophils (10^9/L) <0.165 (Median), 400 mg BID
[15] = Baseline Eosinophils (10^9/L) <0.165 (Median), 400 mg QPM
[16] = Baseline Eosinophils (10^9/L) <0.165 (Median), 400 mg TID
[17] = Baseline Eosinophils (10^9/L) <0.3, 400 mg BID
[18] = Baseline Eosinophils (10^9/L) <0.3, 400 mg QPM
[19] = Baseline Eosinophils (10^9/L) <0.3, 400 mg TID
[20] = Baseline Eosinophils (10^9/L) ≥0.150, 400 mg BID
[21] = Baseline Eosinophils (10^9/L) ≥0.150, 400 mg TID
[22] = Baseline Eosinophils (10^9/L) ≥0.165 (Median), 400 mg BID
[23] = Baseline Eosinophils (10^9/L) ≥0.165 (Median), 400 mg QPM
[24] = Baseline Eosinophils (10^9/L) ≥0.165 (Median), 400 mg TID

CC(C)(C=C(C#N)C(=O)N1CCC[C@@H](n2nc(-c3ccc(Oc4ccccc4)cc3F)c3c(N)ncnc32)C1)N1CCN(C2COC2)CC1 [rilzabrutinib, (R)-2-[3-[4-amino-3-(2-fluoro-4-phenoxy-phenyl)pyrazolo[3,4-d]pyrimidin-1-yl]piperidine-1-carbonyl]-4-methyl-4-[4-(oxetan-3-yl)piperazin-1-yl]pent-2-enenitrile]
Change from Baseline in UAS7 at Week 12: LS Mean Diff vs. placebo (95% CI) [1]: 2.72 (−5.76, 11.20)
Change from Baseline in UAS7 at Week 12: Mean (SD) [1]: −10.71 (7.99)
Change from Baseline in UAS7 at Week 12: LS Mean (SE) [2]: −17.54 (2.39)
Change from Baseline in UAS7 at Week 12: LS Mean Diff vs. placebo (95% CI) [2]: −5.98 (−13.92, 1.95)
Change from Baseline in UAS7 at Week 12: Mean (SD) [2]: −19.17 (11.98)
Change from Baseline in UAS7 at Week 12: LS Mean (SE) [3]: −21.85 (10.98)
Change from Baseline in UAS7 at Week 12: Mean (SD) [3]: −29.00 (NC)^
Change from Baseline in UAS7 at Week 12: LS Mean (SE) [4]: −1.73 (17.36)
Change from Baseline in UAS7 at Week 12: LS Mean Diff vs. placebo (95% CI) [4]: −3.19 (−44.28, 37.89)
Change from Baseline in UAS7 at Week 12: Mean (SD) [4]: −16.33 (NC) ^
Change from Baseline in UAS7 at Week 12: LS Mean (SE) [5]: −23.81 (7.07)
Change from Baseline in UAS7 at Week 12: Mean (SD) [5]: −24.13 (14.17)
Change from Baseline in UAS7 at Week 12: LS Mean (SE) [6]: −19.58 (5.46)
Change from Baseline in UAS7 at Week 12: LS Mean Diff vs. placebo (95% CI) [6]: −10.09 (−27.02, 6.84)
Change from Baseline in UAS7 at Week 12: Mean (SD) [6]: −19.50 (10.03)
Change from Baseline in UAS7 at Week 12: LS Mean (SE) [7]: −17.03 (6.45)
Change from Baseline in UAS7 at Week 12: LS Mean Diff vs. placebo (95% CI) [7]: −7.53 (−24.53, 9.46)
Change from Baseline in UAS7 at Week 12: Mean (SD) [7]: −19.94 (5.28)
Change from Baseline in UAS7 at Week 12: LS Mean (SE) [8]: −22.12 (5.72)
Change from Baseline in UAS7 at Week 12: LS Mean Diff vs. placebo (95% CI) [8]: −12.63 (−29.25, 4.00)
Change from Baseline in UAS7 at Week 12: Mean (SD) [8]: −22.13 (16.40)
Change from Baseline in UAS7 at Week 12: LS Mean (SE) [9]: −12.39 (2.21)
Change from Baseline in UAS7 at Week 12: LS Mean Diff vs. placebo (95% CI) [9]: −2.42 (−8.35, 3.52)
Change from Baseline in UAS7 at Week 12: LS Mean (SE) [10]: −8.95 (2.08)
Change from Baseline in UAS7 at Week 12: LS Mean Diff vs. placebo (95% CI) [10]: 1.02 (−4.73, 6.78)
Change from Baseline in UAS7 at Week 12: Mean (SD) [10]: −9.96 (9.08)
Change from Baseline in UAS7 at Week 12: LS Mean (SE) [11]: −16.51 (2.11)
Change from Baseline in UAS7 at Week 12: LS Mean Diff vs. placebo (95% CI) [11]: −6.53 (−12.28, −0.79)
Change from Baseline in UAS7 at Week 12: Mean (SD) [11]: −18.52 (10.75)
Change from Baseline in UAS7 at Week 12: LS Mean Diff vs. placebo (95% CI) (Baseline BMI (kg/m^2) ≥30, 400 mg BID): −1.65 (−13.49, 10.19)
Change from Baseline in UAS7 at Week 12: LS Mean Diff vs. placebo (95% CI) (Baseline BMI (kg/m^2) ≥30, 400 mg QPM): −0.43 (−11.59, 10.72)
Change from Baseline in UAS7 at Week 12: LS Mean Diff vs. placebo (95% CI) (Baseline BMI (kg/m^2) ≥30, 400 mg TID): −7.58 (−20.66, 5.50)
Change from Baseline in UAS7 at Week 12: LS Mean (SE) [12]: −13.60 (3.19)
Change from Baseline in UAS7 at Week 12: LS Mean Diff vs. placebo (95% CI) [12]: −0.54 (−8.95, 7.87)
Change from Baseline in UAS7 at Week 12: LS Mean (SE) [13]: −20.09 (3.11)
Change from Baseline in UAS7 at Week 12: LS Mean Diff vs. placebo (95% CI) [13]: −7.04 (−15.34, 1.27)
Change from Baseline in UAS7 at Week 12: LS Mean (SE) [14]: −14.30 (2.83)
Change from Baseline in UAS7 at Week 12: LS Mean Diff vs. placebo (95% CI) [14]: −1.83 (−9.50, 5.84)
Change from Baseline in UAS7 at Week 12: Mean (SD) [14]: −11.24 (8.98)
Change from Baseline in UAS7 at Week 12: LS Mean (SE) [15]: −7.71 (2.71)
Change from Baseline in UAS7 at Week 12: LS Mean Diff vs. placebo (95% CI) [15]: 4.76 (−2.75, 12.26)
Change from Baseline in UAS7 at Week 12: Mean (SD) [15]: 9.46 (8.63)
Change from Baseline in UAS7 at Week 12: LS Mean (SE) [16]: −19.82 (2.96)
Change from Baseline in UAS7 at Week 12: LS Mean Diff vs. placebo (95% CI) [16]: −7.36 (−15.23, 0.52)
Change from Baseline in UAS7 at Week 12: Mean (SD) [16]: −21.57 (13.01)
Change from Baseline in UAS7 at Week 12: LS Mean (SE) [17]: −15.05 (2.31)
Change from Baseline in UAS7 at Week 12: LS Mean Diff vs. placebo (95% CI) [17]: −4.89 (−11.04, 1.26)
Change from Baseline in UAS7 at Week 12: Mean (SD) [17]: −14.90 (12.30)
Change from Baseline in UAS7 at Week 12: LS Mean (SE) [18]: −9.19 (2.15)
Change from Baseline in UAS7 at Week 12: LS Mean Diff vs. placebo (95% CI) [18]: 0.97 (−5.00, 6.93)
Change from Baseline in UAS7 at Week 12: Mean (SD) [18]: −10.75 (8.91)
Change from Baseline in UAS7 at Week 12: LS Mean (SE) [19]: −18.29 (2.31)
Change from Baseline in UAS7 at Week 12: LS Mean Diff vs. placebo (95% CI) [19]: −8.14 (−14.29, −1.98)
Change from Baseline in UAS7 at Week 12: Mean (SD) [19]: −19.99 (12.00)
Change from Baseline in UAS7 at Week 12: LS Mean (SE) [20]: −14.57 (2.57)
Change from Baseline in UAS7 at Week 12: LS Mean Diff vs. placebo (95% CI) [20]: −7.68 (−15.25, −0.11)
Change from Baseline in UAS7 at Week 12: LS Mean (SE) [21]: −14.80 (2.58)
Change from Baseline in UAS7 at Week 12: LS Mean Diff vs. placebo (95% CI) [21]: −7.92 (−15.27, −0.56)
Change from Baseline in UAS7 at Week 12: LS Mean (SE) [22]: −14.13 (2.87)
Change from Baseline in UAS7 at Week 12: LS Mean Diff vs. placebo (95% CI) [22]: −7.01 (−15.24, 1.22)
Change from Baseline in UAS7 at Week 12: Mean (SD) [22]: −17.73 (14.16)
Change from Baseline in UAS7 at Week 12: LS Mean (SE) [23]: −10.83 (2.83)
Change from Baseline in UAS7 at Week 12: LS Mean Diff vs. placebo (95% CI) [23]: −3.71 (−11.80, 4.38)
Change from Baseline in UAS7 at Week 12: Mean (SD) [23]: −11.84 (10.30)
Change from Baseline in UAS7 at Week 12: LS Mean (SE) [24]: −14.63 (2.71)
Change from Baseline in UAS7 at Week 12: LS Mean Diff vs. placebo (95% CI) [24]: −7.52 (−15.32, 0.28)
